Laboratory results taken from article PMC3098923 (Bioorganic & medicinal chemistry letters, 2011).

Legend:
human TLR7 = biological target: T1, human TLR7 (Homo sapiens, UniProt Q9NYK1); assay: human TLR7-specific reporter gene assay; type: cell-based
T1 sequence (Q9NYK1 27-1049): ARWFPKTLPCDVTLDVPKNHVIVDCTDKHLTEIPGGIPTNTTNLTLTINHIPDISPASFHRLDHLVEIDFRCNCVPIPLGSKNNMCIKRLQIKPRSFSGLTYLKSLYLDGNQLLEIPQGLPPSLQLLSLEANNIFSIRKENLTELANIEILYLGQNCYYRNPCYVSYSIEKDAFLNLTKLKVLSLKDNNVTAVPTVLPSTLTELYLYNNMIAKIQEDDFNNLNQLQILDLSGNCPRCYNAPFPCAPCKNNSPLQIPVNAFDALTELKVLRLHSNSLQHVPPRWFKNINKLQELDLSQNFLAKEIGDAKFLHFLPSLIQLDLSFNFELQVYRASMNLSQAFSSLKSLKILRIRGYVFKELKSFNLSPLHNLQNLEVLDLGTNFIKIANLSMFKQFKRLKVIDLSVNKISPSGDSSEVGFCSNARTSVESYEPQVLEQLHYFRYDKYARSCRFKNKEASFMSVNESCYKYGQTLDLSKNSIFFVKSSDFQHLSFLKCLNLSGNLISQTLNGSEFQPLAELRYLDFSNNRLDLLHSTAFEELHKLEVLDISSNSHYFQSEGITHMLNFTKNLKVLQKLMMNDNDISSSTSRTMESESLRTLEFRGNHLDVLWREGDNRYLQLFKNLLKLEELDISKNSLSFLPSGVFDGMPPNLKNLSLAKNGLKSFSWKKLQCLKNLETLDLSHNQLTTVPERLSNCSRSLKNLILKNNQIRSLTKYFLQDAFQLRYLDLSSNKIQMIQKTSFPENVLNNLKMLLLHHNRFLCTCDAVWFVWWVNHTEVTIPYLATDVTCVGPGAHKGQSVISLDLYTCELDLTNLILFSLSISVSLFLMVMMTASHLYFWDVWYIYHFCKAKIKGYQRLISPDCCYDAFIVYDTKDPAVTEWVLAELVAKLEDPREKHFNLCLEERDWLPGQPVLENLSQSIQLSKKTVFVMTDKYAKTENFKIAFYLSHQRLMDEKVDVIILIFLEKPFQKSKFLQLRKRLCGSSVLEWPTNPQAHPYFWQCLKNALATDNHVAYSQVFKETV

aqueous solubility = type: physicochemical
human PBMCs = assay: Induction of IFN-α, IFN-γ, IL-12 and IL-18 in human PBMCs, ELISA; type: cell-based

Row | TLR7-agonistic activity (in words) (human TLR7) | aqueous solubility (aqueous solubility) | Structure (SMILES) | Th1-biased cytokine induction (IFN-α, IFN-γ, IL-12, IL-18) (human PBMCs)
1 | active |  | CCCCc1nc2c(N)nc3ccccc3c2n1Cc1ccc(CNC(=S)NCC(=O)NCC(=O)NCC(=O)OC)cc1 [compound 3] | 
2 | completely inactive |  | CCCCc1nc2c(N)nc3ccccc3c2n1Cc1ccc(CNC(=O)CCN2C(=O)CC(SC[C@@H](NC(=O)CC[C@@H](N)C(=O)O)C(=O)NCC(=O)O)C2=O)cc1 (stereo partly shown) [6a] | 
3 |  | excellent | CCCCc1nc2c(N)nc3ccccc3c2n1Cc1ccc(CN)cc1 [compound 1] | prominent Th1 bias
